Measurements taken from PubChem BioAssay (NCI).
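Here, GI50 denotes the concentration required for 50% inhibition of growth. TGI: total growth inhibition.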

How the values were obtained:
Assay in all cases: growth of human tumour cells (NCI), 384-well format
SW-620 colon = system: SW-620 colon
NCI-H460 NSCLC = system: NCI-H460 NSCLC
CAKI-1 renal = system: CAKI-1 renal
UO-31 renal = system: UO-31 renal
NCI/ADR-RES ovarian = system: NCI/ADR-RES ovarian
TK-10 renal = system: TK-10 renal
HOP-92 NSCLC = system: HOP-92 NSCLC
HCT-15 colon = system: HCT-15 colon
DU-145 prostate = system: DU-145 prostate
NCI-H226 lung = system: NCI-H226 lung
OVCAR-4 ovarian = system: OVCAR-4 ovarian
NCI-H522 lung = system: NCI-H522 lung
MOLT-4 leukemia = system: MOLT-4 leukemia
SNB-75 CNS = system: SNB-75 CNS
RPMI-8226 leukemia = system: RPMI-8226 leukemia
MDA-MB-435 melanoma = system: MDA-MB-435 melanoma
HT29 colon = system: HT29 colon
SF-295 CNS = system: SF-295 CNS
NCI-H322M lung = system: NCI-H322M lung
HCC-2998 colon = system: HCC-2998 colon
U251 glioblastoma = system: U251 glioblastoma
MCF7 breast = system: MCF7 breast
SF-539 CNS = system: SF-539 CNS
HL-60(TB) leukemia = system: HL-60(TB) leukemia
LOX IMVI melanoma = system: LOX IMVI melanoma
COLO 205 colon = system: COLO 205 colon
KM12 colon = system: KM12 colon
NCI-H23 lung = system: NCI-H23 lung
SN12C renal = system: SN12C renal
HOP-62 NSCLC = system: HOP-62 NSCLC
PC-3 prostate = system: PC-3 prostate
BT-549 breast = system: BT-549 breast
SK-MEL-28 melanoma = system: SK-MEL-28 melanoma
HS 578T breast = system: HS 578T breast
UACC-257 melanoma = system: UACC-257 melanoma
SNB-19 CNS = system: SNB-19 CNS
A549 NSCLC = system: A549 NSCLC
IGROV1 ovarian = system: IGROV1 ovarian
RXF 393 renal = system: RXF 393 renal
UACC-62 melanoma = system: UACC-62 melanoma
T-47D breast = system: T-47D breast
SK-OV-3 ovarian = system: SK-OV-3 ovarian
OVCAR-8 ovarian = system: OVCAR-8 ovarian
EKVX NSCLC = system: EKVX NSCLC
M14 melanoma = system: M14 melanoma
SF-268 CNS = system: SF-268 CNS
HCT-116 colon = system: HCT-116 colon
SK-MEL-5 melanoma = system: SK-MEL-5 melanoma
786-0 renal = system: 786-0 renal
MALME-3M melanoma = system: MALME-3M melanoma
MDA-MB-468 breast = system: MDA-MB-468 breast
ACHN renal = system: ACHN renal
OVCAR-3 ovarian = system: OVCAR-3 ovarian
K-562 leukemia = system: K-562 leukemia
CCRF-CEM leukemia = system: CCRF-CEM leukemia
A498 renal = system: A498 renal
SR leukemia = system: SR leukemia
MDA-MB-231 breast = system: MDA-MB-231 breast

**Q.** What does the source list for `C[C@@H](Nc1cc(F)cc(F)c1)c1cc(C(=O)N(C)C)cc2c(=O)cc(N3CCOCC3)oc12`?
**A.** GI50 (SW-620 colon): 61.4 µM; TGI (SW-620 colon): > 100 µM; GI50 (NCI-H460 NSCLC): 4.5 µM; TGI (NCI-H460 NSCLC): > 100 µM; GI50 (CAKI-1 renal): 0.25 µM; TGI (CAKI-1 renal): > 100 µM; GI50 (UO-31 renal): 6.38 µM; TGI (UO-31 renal): > 100 µM; GI50 (NCI/ADR-RES ovarian): > 100 µM; TGI (NCI/ADR-RES ovarian): > 100 µM; GI50 (TK-10 renal): 3.57 µM; TGI (TK-10 renal): > 100 µM; GI50 (HOP-92 NSCLC): 0.627 µM; TGI (HOP-92 NSCLC): > 100 µM; GI50 (HCT-15 colon): 25.5 µM; TGI (HCT-15 colon): > 100 µM; GI50 (DU-145 prostate): 17.4 µM; TGI (DU-145 prostate): > 100 µM; GI50 (NCI-H226 lung): 67.6 µM; TGI (NCI-H226 lung): > 100 µM; GI50 (OVCAR-4 ovarian): > 100 µM; TGI (OVCAR-4 ovarian): > 100 µM; GI50 (NCI-H522 lung): 23.7 µM; TGI (NCI-H522 lung): > 100 µM; GI50 (MOLT-4 leukemia): 1.11 µM; TGI (MOLT-4 leukemia): 10.8 µM; GI50 (SNB-75 CNS): 0.762 µM; TGI (SNB-75 CNS): > 100 µM; GI50 (RPMI-8226 leukemia): 16.6 µM; TGI (RPMI-8226 leukemia): 51.1 µM; GI50 (MDA-MB-435 melanoma): 87 µM; TGI (MDA-MB-435 melanoma): > 100 µM; GI50 (HT29 colon): 6.45 µM; TGI (HT29 colon): > 100 µM; GI50 (SF-295 CNS): 0.611 µM; TGI (SF-295 CNS): 16 µM; GI50 (NCI-H322M lung): 8.36 µM; TGI (NCI-H322M lung): 78 µM; GI50 (HCC-2998 colon): 5.66 µM; TGI (HCC-2998 colon): 55.6 µM; GI50 (U251 glioblastoma): 39.2 µM; TGI (U251 glioblastoma): > 100 µM; GI50 (MCF7 breast): 0.666 µM; TGI (MCF7 breast): > 100 µM; GI50 (SF-539 CNS): 12 µM; TGI (SF-539 CNS): > 100 µM; GI50 (HL-60(TB) leukemia): 0.599 µM; TGI (HL-60(TB) leukemia): 9.14 µM; GI50 (LOX IMVI melanoma): 17 µM; TGI (LOX IMVI melanoma): > 100 µM; GI50 (COLO 205 colon): 13.4 µM; TGI (COLO 205 colon): > 100 µM; GI50 (KM12 colon): 23.5 µM; TGI (KM12 colon): > 100 µM; GI50 (NCI-H23 lung): 31.8 µM; TGI (NCI-H23 lung): > 100 µM; GI50 (SN12C renal): 0.215 µM; TGI (SN12C renal): > 100 µM; GI50 (HOP-62 NSCLC): 28.8 µM; TGI (HOP-62 NSCLC): > 100 µM; GI50 (PC-3 prostate): 0.261 µM; TGI (PC-3 prostate): > 100 µM; GI50 (BT-549 breast): 0.341 µM; TGI (BT-549 breast): > 100 µM; GI50 (SK-MEL-28 melanoma): 1.39 µM; TGI (SK-MEL-28 melanoma): > 100 µM; GI50 (HS 578T breast): 0.902 µM; TGI (HS 578T breast): 32.8 µM; GI50 (UACC-257 melanoma): 17.2 µM; TGI (UACC-257 melanoma): > 100 µM; GI50 (SNB-19 CNS): 68.6 µM; TGI (SNB-19 CNS): > 100 µM; GI50 (A549 NSCLC): 7.85 µM; TGI (A549 NSCLC): > 100 µM; GI50 (IGROV1 ovarian): 0.392 µM; TGI (IGROV1 ovarian): 3.29 µM; GI50 (RXF 393 renal): 0.182 µM; TGI (RXF 393 renal): 8.24 µM; GI50 (UACC-62 melanoma): 0.981 µM; TGI (UACC-62 melanoma): 24.7 µM; GI50 (T-47D breast): 0.591 µM; TGI (T-47D breast): 9.05 µM; GI50 (SK-OV-3 ovarian): 3.48 µM; TGI (SK-OV-3 ovarian): > 100 µM; GI50 (OVCAR-8 ovarian): 10.3 µM; TGI (OVCAR-8 ovarian): > 100 µM; GI50 (EKVX NSCLC): 2.4 µM; TGI (EKVX NSCLC): > 100 µM; GI50 (M14 melanoma): 20.4 µM; TGI (M14 melanoma): > 100 µM; GI50 (SF-268 CNS): 13.1 µM; TGI (SF-268 CNS): > 100 µM; GI50 (HCT-116 colon): 10.5 µM; TGI (HCT-116 colon): > 100 µM; GI50 (SK-MEL-5 melanoma): 11.3 µM; TGI (SK-MEL-5 melanoma): > 100 µM; GI50 ([…]-0 renal): 1.24 µM; TGI (786-0 renal): > 100 µM; GI50 (MALME-3M melanoma): 1.13 µM; TGI (MALME-3M melanoma): 63.1 µM; GI50 (MDA-MB-468 breast): 1.59 µM; TGI (MDA-MB-468 breast): 12.7 µM; GI50 (ACHN renal): 6.68 µM; TGI (ACHN renal): > 100 µM; GI50 (OVCAR-3 ovarian): 0.465 µM; TGI (OVCAR-3 ovarian): 18 µM; GI50 (K-562 leukemia): 55.1 µM; TGI (K-562 leukemia): > 100 µM; GI50 (CCRF-CEM leukemia): 13.4 µM; TGI (CCRF-CEM leukemia): 57.9 µM; GI50 (A498 renal): 0.0447 µM; TGI (A498 renal): 1.31 µM; GI50 (SR leukemia): 0.385 µM; TGI (SR leukemia): 16.6 µM; GI50 (MDA-MB-231 breast): 49.1 µM; TGI (MDA-MB-231 breast): > 100 µM
